In patent publication US20100261711A1, “SELECTIVE ANTICONVULSANT AGENTS AND THEIR USES” (WiSys Technology Foundation, priority 2009, published 2010):
“And” between values parts separate entries of the source, which are not always exact repeats. Equal entries are not always repeated. “Also recorded” adds a separate entry of the source.

Columns and labels:
[1] = Plasma levels by LC-MS/MS (tolerance study); format: in vivo, Sprague Dawley rats; details: for Conc HZ-166 in plasma, individual subjects: 35.5 mg/kg
Procedure: Immediately after testing, blood was collected via cardiac puncture. Samples were spun down, plasma was collected and acetonitrile added. Samples were frozen at −80° C. and shipped to a commercial laboratory (Enthalpy) for analysis.
Group 3 (8 subjects) was dosed with vehicle only.

[2] = Toxicity (TOX), minimal motor deficit, rats; format: in vivo; details: in vivo; Rat IP
[3] = system: Metrazol-induced clonic seizures; assay: Tolerance study, 5 day dosing, scMet; format: in vivo, Sprague Dawley rats
Procedure: The dose utilized was the predetermined ED50 against the scMet seizure model. In this model a subcutaneous injection of the convulsant Metrazol is used to produce highly reproducible clonic seizures in laboratory animals. […] Animals are pretreated with various doses of the test compound. At the time of peak effect (TPE) of the test compound, a dose of Metrazol that induce convulsions in 97% of animals (CD97: 85 mg/kg mice) is injected into a loose fold of skin in the midline of the neck. The animals are placed in isolation cages to minimize stress (Swinyard et al., 1961) and observed for the next 30 minutes for the presence or absence of a seizure. An episode of clonic spasms, approximately 3-5 seconds, of the fore and/or hindlimbs, jaws, or vibrissae is taken as the endpoint.
In this study, Sprague Dawley rats were used (average weight 150 gm). […] Finally, Group 3 was the solvent control group. These animals were administered the test solvent (methylcellulose 0.5%) as a control. Here methylcellulose was administered i.p. for all 5 days.
On day 5, all animals from each group were tested in the scMet model using the previously determined time of peak effect (TPE) of 15 minutes. Immediately after testing, blood was collected via cardiac puncture. Samples were spun down, plasma was collected and acetonitrile added. Samples were frozen at −80° C. and shipped to a commercial laboratory (Enthalpy) for analysis.

[4] = system: Pilocarpine-induced Status; assay: Pilocarpine-induced status; format: in vivo, rats; details: for Pilocarpine-induced Status, Time to Peak Effect, ratio of animals: Time 0 Hrs

C#Cc1ccc2c(c1)C(c1ccccn1)=NCc1c(C(=O)OCC)ncn1-2 [Hz166 (106), 8-Acetylenyl-6-pyridin-2-yl-4H-benzo[f]imidazo[1,5-a][1,4]diazepine-3-carboxylic acid ethyl ester]
HZ-166, plasma average with outliers excluded ([1]; Group 1 (five days dosing)): 0.334 nmol/mL
Conc HZ-166 in plasma, individual subjects ([1]; Group 1: HZ-166 35.5 mg/kg ip for five days, blood after test on day 5): 94.3 ng/mL and 85.4 ng/mL and 168 ng/mL and 138 ng/mL and BLQ < (1.00) ng/mL and 118 ng/mL and 198 ng/mL and 30.5 ng/mL
HZ-166, plasma average with outliers excluded ([1]; Group 2 (day 5 only)): 0.533 nmol/mL
Conc HZ-166 in plasma, individual subjects ([1]; Group 2: HZ-166 35.5 mg/kg ip on day 5 only): 202 ng/mL and 165 ng/mL and 8.67 ng/mL and 273 ng/mL and 210 ng/mL and 93.3 ng/mL and 176 ng/mL
TD50 [2]: 95.3 mg/kg
protection against scMet induced seizures ([3]; Group 1 chronic dosing, day 5): approximately 40%
scMet, animals protected/tested ([3]; Group 1 chronic dosing: 35.5 mg/kg ip once daily 5 days, tested day 5 at TPE 15 min, 35.5 mg/kg): 3/8 and 3/8 protected (chronic dosing)
scMet, animals protected/tested ([3]; Group 2 acute dosing: single 35.5 mg/kg ip dose on day 5, TPE 15 min, 35.5 mg/kg): 1/8 and 1/8 (acute dosing)
scMet, animals protected/tested ([3]; original preliminary study (different rats), acutely treated group): 5/8
scMet, animals protected/tested ([3]; original preliminary study (different rats), chronically treated group): 5/8
tolerance to the anticonvulsant effects ([3]; rats, dosed 5 days at the calculated scMet ED50): didn't develop tolerance; also recorded: did not develop tolerance

C#Cc1ccc2c(c1)C(c1ccccc1F)=NCc1c(C(=O)OCC)ncn1-2 [JY-XHe-053 (15), Ethyl-8-acetyleno-6-(2′-fluorophenyl)-4H-benzo[f]imidazo[1,5-a][1,4]diazepine-3-carboxylate]
TD50 [2]: 69.6 mg/kg

C#Cc1ccc2c(c1)C(c1ccccc1)=N[C@H](C)c1nnc(C)n1-2 [SH-TR-CH3 (146), (4R)-8-Ethynyl-1,4-dimethyl-6-phenyl-4H-benzo[f][1,2,4]triazolo[4,3-a][1,4]diazepine]
Pilocarpine-induced Status, Time to Peak Effect, ratio of animals ([4]; Rats, 100 mg/kg, 0.25 Hr): 0/2
Pilocarpine-induced Status, Time to Peak Effect, ratio of animals ([4]; Rats, 100 mg/kg, 0.5 Hr): 0/2
Pilocarpine-induced Status, Time to Peak Effect, ratio of animals ([4]; Rats, 100 mg/kg, 1.0 Hr): 0/2
Pilocarpine-induced Status, Time to Peak Effect, ratio of animals ([4]; Rats, 100 mg/kg, 2.0 Hr): 0/2
Pilocarpine-induced Status, Time to Peak Effect, ratio of animals ([4]; Rats, 100 mg/kg, 4.0 Hr): 0/2
Pilocarpine-induced Status, Time to Peak Effect, ratio of animals ([4]; Rats, 300 mg/kg, 0.25 Hr): 0/2
Pilocarpine-induced Status, Time to Peak Effect, ratio of animals ([4]; Rats, 300 mg/kg, 0.5 Hr): 0/2
Pilocarpine-induced Status, Time to Peak Effect, ratio of animals ([4]; Rats, 300 mg/kg, 1.0 Hr): 0/2
Pilocarpine-induced Status, Time to Peak Effect, ratio of animals ([4]; Rats, 300 mg/kg, 2.0 Hr): 0/2
Pilocarpine-induced Status, Time to Peak Effect, ratio of animals ([4]; Rats, 300 mg/kg, 4.0 Hr): 0/2
Pilocarpine-induced Status, Time to Peak Effect, ratio of animals ([4]; Rats, 500 mg/kg, 0.25 Hr, Ataxia noted): 0/2^12
Pilocarpine-induced Status, Time to Peak Effect, ratio of animals ([4]; Rats, 500 mg/kg, 0.5 Hr, Ataxia noted): 0/2^12
Pilocarpine-induced Status, Time to Peak Effect, ratio of animals ([4]; Rats, 500 mg/kg, 1.0 Hr, Ataxia noted): 0/2^12
Pilocarpine-induced Status, Time to Peak Effect, ratio of animals ([4]; Rats, 500 mg/kg, 2.0 Hr, Ataxia noted): 0/2^12
Pilocarpine-induced Status, Time to Peak Effect, ratio of animals ([4]; Rats, 500 mg/kg, 4.0 Hr): 0/2
Pilocarpine-induced Status, ratio of animals ([4]; Rats, 600 mg/kg, 0 Hrs post first Stage III seizure): 4/7
Pilocarpine-induced Status, ratio of animals ([4]; Rats, 1,000 mg/kg, 0.5 Hrs post first Stage III seizure, footnote c: death): 1/7^c
